As a reminder, the melting point is the temperature, or range, at which the solid turns liquid.

Bounds are passed on as bounds.

Drawing on a melting point compilation (Tetko et al.; mined from patent text by program, amines drawn as free bases though some values may be those of a salt), this text covers melting point for 87 compounds.

The compound `CCCCCCN(CCC12CC3CC(CC(C3)C1)C2)C(=O)NCCCc1ccncc1` came in with a melting point of 120 to 122 °C.
Consider `Cc1cccc(Nc2cc(Cl)nc(SCC(=O)NN)n2)c1C`, for which the melting point is 185 to 189 °C.
In the case of `CN1C(c2ccc(Br)cc2)C2C(=O)N(Cc3ccc4c(c3)OCO4)C(=O)C2C1(C)C` (configuration not stated), the melting point lay in the range of 109 to 111 °C.
With `COc1ccc(-c2noc3c2CCCC(C(=O)O)C3)cc1` (configuration not stated), the melting point lay within 194 to 196 °C.
Next, `COC(=O)C(O[Si](C)(C)C(C)(C)C)c1ccccc1O` (configuration not stated): 103 to 104 °C; `CSc1cc(SC)c(SC)cc1NC(C)=O`: 87 to 89 °C; `COCCO[C@@H]1c2ccn3c(C)c(C)nc3c2N[C@H](c2ccccc2)[C@H]1OC(=O)CCCCBr`: 98.6 °C.
Next, `Cc1cccc(NC(=O)N(C)C)c1`: 124 to 127 °C; `CCOC(=O)C1=C(C(=O)OC)CC(=O)C2=C1SC=C1C=CC=CN12`: 143 to 144 °C; `FC(F)(F)c1ccc(CC(=Nc2ccccc2)NC(=S)NCc2cccnc2)cc1`: 165 to 166 °C.
The compound `O=C1Cc2c(Cl)cccc2Sc2ccc(F)cc21` returned a melting point of 135 to 137 °C.
Take `Cc1cc(-c2ccc(C#N)cc2)c(C)n1Cc1cnc(Cl)c(CO)c1`: the melting point lay in the range of 128 to 129 °C.
In the case of `NS(=O)(=O)c1ccc(S(=O)(=O)c2ccc(OC(=O)c3cccnc3)cc2)s1`, the melting point was in the range of 200 to 201 °C.
Regarding `Fc1ccc(-c2nc(-c3ccc(CN4CCOCC4)cc3)[nH]c2-c2ccncc2)cc1`, the melting point was in the range of 242 to 243 °C.
On to `CCN1C(=O)C(C(=O)c2cccs2)c2cc(Cl)cnc21` (configuration not stated), for which the melting point lay within 111 to 112 °C.
For `CS(=O)(=O)c1cc(C(=O)O)c(Cl)cc1Oc1ccccc1`, the melting point stood at 200 °C.
Compound `O=c1nc(-c2ccc3c(c2)OCCO3)c2cc3c(cc2[nH]1)OCO3` displayed a melting point of over 300 °C.
For the compound `CCOC1CC2(C)C(CCC3C2C(=O)CC2(C)C3CCC23OCCO3)CC1O` (configuration not stated), the melting point lay within 142 to 145 °C.
Next, `COC(=O)CS(=O)(=O)Cc1cccc(-c2nc(=O)c3ccccc3s2)n1`: 205 to 207 °C.
Consider `NC(=O)c1ccc(F)c2c1CC(N(CCCc1c[nH]c3c(Cl)cccc13)C1CCC1)CO2` (configuration not stated), for which the melting point lay in the range of 154 to 163 °C.
Turning to `CC(C)(C)OC(=O)N1CC(COS(C)(=O)=O)c2c1cc(OCc1ccccc1)c1ncccc21` (configuration not stated), the melting point lay in the range of 156 to 157 °C.
Next, `COC(=O)C1=C(C)NC(C)=C(c2nc(C)no2)C1c1cccc(N)c1` (configuration not stated): 248 to 249 °C; `CCCc1nn(-c2ccc(C(F)(F)F)cn2)cc1CCCOc1cc(CCC(=O)O)ccc1OC`: 147 to 148 °C.
For `COc1cc2c(cc1OC(C)=O)CCC1C3=CC=C(OC(C)=O)C3(C)CCC21` (configuration not stated), the melting point lay within 191 to 194 °C.
Next, `COC(=O)NCCc1ccc(C(=O)OC)c(S(N)(=O)=O)c1`: 146 to 149 °C; `O=C(c1ccc(F)cc1)C1CCN(CCn2c(-c3ccccc3)nc3ccccc3c2=O)CC1`: 144 °C; `CC(Cl)Cn1cc(-c2ccccc2)c2ccccc2c1=O` (configuration not stated): 141 °C.
Compound `Cc1c(Sc2ccc(Cl)cc2)nn(-c2ccc(Oc3ccccc3)cc2)c(=O)c1C#N` yielded a melting point of 164 °C.
As to `CCOC(=O)C1CCc2sc3ccc(C#N)cc3c2C1` (configuration not stated), the melting point is 121 to 122 °C.
Compound `CC(c1cccnc1)n1nnc2cc3c(cc2c1=O)OC1CCCN1C3=O` (configuration not stated) yielded a melting point of 195 to 196 °C.
In turn, `Cc1ccc(CC(CC(=O)N2CC3CCCCC3C2)C(=O)O)cc1` (configuration not stated) had a melting point of 133 to 134 °C.
Turning to `CC1(C)Oc2ccc(C#N)cc2[C@@H](n2cnccc2=O)[C@@H]1O` (relative stereo), the melting point is 202 to 203 °C.
`Nc1ncnc2c1ncn2OCC/C=C/P(=O)(O)O`: the melting point came out at 238 °C.
Next, `Cc1ccc([N+](=O)[O-])cc1C=CC#N`: 113 °C; `COc1cc(C(=O)c2ccnc3ccccc23)ccc1O`: 190 to 192 °C; `O=C(N[C@H](Cc1cccc(OC(F)(F)C(F)F)c1)[C@@H](O)c1csc(-c2ccccc2)n1)c1ccc(F)c2ccccc12` (racemic): 148 to 150 °C.
`CN(C(=O)C(F)(F)F)c1cnn(-c2cccc(C(F)(F)F)c2)c(=O)c1-c1cccc(C(F)(F)F)c1` displayed a melting point of 122 °C.
On to `COC(=O)C1Cc2ccccc2N1c1ncnc2cc(OC)c(OC)cc12` (configuration not stated), for which the melting point lay within 186 to 190 °C.
`CC(C)C(=O)c1cn(Cc2c(F)cccc2F)c2sc(-c3ccc([N+](=O)[O-])cc3)c(CN(C)Cc3ccccc3)c2c1=O` yielded a melting point of 158 to 162 °C.
Consider `CCOC(=O)CNC(=S)NC(Cc1ccc(OC)cc1)=Nc1ccccc1`, for which the melting point lay in the range of 120 to 121 °C.
For `CCC1(CC)OC(c2ccc(S(C)(=O)=O)cc2)=C(c2ccc(OC)c(F)c2)C1=O`, the melting point is 183 to 184 °C.
Next, `CC(C)Cc1cnc(O)c([N+](=O)[O-])c1`: 161 to 163 °C.
Next, `Cc1nccn1CC1CC2CCCn3c2c(c2ccccc23)C1=O` (configuration not stated): 169 to 171 °C; `CON=C(c1nnn[nH]1)c1ccccc1COc1cc(C)ccc1C`: 168 to 170 °C.
For the compound `C[C@@H](COC(F)(F)C(F)F)[C@](O)(Cn1cncn1)c1ccc(F)cc1F`, the melting point turned out to be 148 °C.
Next, `CCCCN(CCCC)CCCOc1ccc(C(=O)c2c(-c3ccccc3)cc3ccccn23)cc1`: 92 to 93.5 °C.
`Nc1ccc(N2C(=O)CNC2=O)cc1` yielded a melting point of 230 to 231 °C.
In the case of `COc1cccc(CC(=O)O)c1OCCc1cn(-c2ccc(C(F)(F)F)cn2)nc1C(C)C`, the melting point was in the range of 165 to 166 °C.
Next, `C=CCc1cc(C2=NNC(=O)CC2)ccc1OCC1CO1` (configuration not stated): 92.5 to 95 °C; `O=C(O)c1cc2c(-c3cccs3)nccc2[nH]c1=O`: 278 °C.
For `COc1ccc(-n2nc(C(=O)c3ccccc3)cc2-c2ccc(C)cc2)cc1`, the melting point lay within 138 to 139 °C.
Compound `CC(C)CC(=O)c1cc2ccncc2[nH]1` had a melting point of 215 to 218 °C.
The compound `COc1cc(-c2nc(N3CCOCC3)c3c(C)c(C#N)sc3n2)cc(OC)c1OC` returned a melting point of over 250 °C.
Next, `CCn1c(C(O)(C2CC2)C2CC2)nc(-c2ccncc2)c1-c1ccc(Cl)cc1`: 185 to 188 °C.
In turn, `Cc1cccc(C)c1NC(=O)Cn1ccnc1` had a melting point of 160 to 162 °C.
Compound `Cc1ccc(N2CCN(c3c(C)c(C)c4c(c3C)CC(C)O4)CC2)cc1` (configuration not stated) yielded a melting point of 150 to 151 °C.
The compound `COc1ccc(OCC(O)CNC(C)(C)C)c(-c2ccc(=S)[nH]n2)c1` (configuration not stated) returned a melting point of 188 to 190 °C.
On to `O=C(Nc1ccc2ccc(Cl)nc2n1)c1cncs1`, for which the melting point worked out at 292 °C.
Consider `CCCC1CCC(C2CCC(OCCCO)CC2)CC1` (configuration not stated), for which the melting point was in the range of 110 to 111 °C.
In turn, `Cc1nc(CN)c2n1-c1ccc(Cl)cc1C(c1ccccc1)=NC2` yielded a melting point of 217 to 219 °C.
The compound `CC(C)(C)n1cnc2c1c1ccccc1n1nnnc21` yielded a melting point of 224 to 226 °C.
Next, `CC(/C=C/CC(C)c1cc(C(C)(C)C)cc(C(C)(C)C)c1)=C\C(=O)O` (configuration not stated): 127 to 128 °C.
Turning to `CCOC(=O)C(=O)NNC(=O)c1ccc(OCC)cc1`, the melting point came out at 126 °C.
With `CCCCn1ncc(/C=C(\Cc2cc3c(cc2OC)CCO3)C(=O)O)c1-c1ccc(Cl)cc1OCc1ccccc1C(=O)O`, the melting point was 116 to 118 °C.
With `CC(C)(C)C(=O)SC[C@H](NC(=O)C(C)(C)SC(=O)C(C)(C)C)C(=O)O`, the melting point lay within 140 to 141 °C.
As for `CCOC(=O)c1cc(C#N)cc(CO)n1`, the melting point worked out at 87.5 °C.
For `NS(=O)(=O)c1sc2ccccc2c1CCO`, the melting point fell in the range of 162 to 164 °C.
In turn, `CCCCC1(CCCC)CS(=O)(=O)c2ccc(N(C)C)cc2C(c2ccc(OCC(=O)NCC(=O)O)cc2)C1O` (configuration not stated) displayed a melting point of 149 to 150 °C.
As to `COCCN(CC1=CCC(Oc2ccccc2)([N+](=O)[O-])C=C1)C(=O)C(Cl)Cl` (configuration not stated), the melting point was 116 to 117 °C.
Take `O=C(O)c1cccc(CC(Cn2ccnc2)c2ccc(F)cc2)c1` (configuration not stated): the melting point was in the range of 125 to 130 °C.
`COc1ccc(CCC(=O)C2C(=O)C=C(C)OC2=O)cc1O` (configuration not stated) yielded a melting point of 115 to 116 °C.
Next, `O=C(O)C1=Cc2cc(S(=O)(=O)NCc3ccco3)ccc2OC1C(F)(F)F` (configuration not stated): 170 to 173 °C; `O=S(Cc1noc(Cc2ccccc2)n1)c1ccc(CCNC[C@H](O)COc2ccc(O)cc2)cc1` (some centres not stated): 51 to 57 °C; `CC(c1oc2ccccc2c(=O)c1-c1cccc(F)c1)n1nc(-c2cccc3c2oc2ccccc23)c2c(N)ncnc21` (configuration not stated): 238 to 240 °C.
`CCCCCOC(=O)Nc1ccc(CN2C(=O)CCc3c(CC4SC(=O)NC4=O)ccc(OC)c32)cc1` (configuration not stated) showed a melting point of 98 to 102 °C.
Consider `COC(=O)CCCCCNC(=O)c1cccc(OC)c1O`, for which the melting point lay within 69 to 70 °C.
`CCc1nnc2c(N(CC)CC)nc3ccc(OC)cc3n12` had a melting point of 135 to 138 °C.
Next, `O=C(O)c1cc(C(c2cc(F)ccc2F)S(=O)(=O)c2ccc(Cl)cc2)c(F)cn1` (configuration not stated): 208 to 209 °C; `C#CC12CC3CC(CC(C3)C1)C2`: 80 to 82 °C; `CC(=O)C(=C1SCCCN1Br)[N+](=O)[O-]`: 101 to 104 °C.
Take `Cc1ncc2c(C#N)c(-c3ccc(S(=O)(=O)N[C@@H](C)C4CC4)cn3)n(C3CCC3)c2n1`: the melting point was 155 to 157 °C.
`O=CNCc1ccc2[nH]cc(CCNC(=O)OCc3ccccc3)c2c1` had a melting point of 114 to 116 °C.
Regarding `N#Cc1c(N2CCN(C(=O)c3cccs3)CC2)c2cc(F)ccc2n(Cc2ccccc2)c1=O`, the melting point is 246 °C.
The compound `CC1NC(=O)NN=C1c1cccc(Cl)c1` (configuration not stated) yielded a melting point of 206 to 208 °C.
In turn, `CN(C)CCCNC(=O)[C@@H]1CCCN1S(=O)(=O)c1ccc(Cl)c(COc2cccc3c2NC(C)(C)C=C3n2cncn2)c1Cl` showed a melting point of 154 °C.
`CCOC(=O)C1CN(C(=O)c2ccccc2)CC1c1ccc(NC(=O)Cc2ccc(NC(=O)Nc3ccccc3C)c(OC)c2)cc1` (configuration not stated) displayed a melting point of 130 °C.
Next, `CCCCCCCCCCC(=O)N[C@H]1CCCNC(=O)C1`: 91 to 92 °C.
